{
  "source": "patent USH1551H",
  "about": "“Topical composition and method for reducing hair loss from human scalp” (priority 1982, dated 1996)",
  "key": {"[1]": {"biological_target": "T1, testosterone-5α-reductase (Mesocricetus auratus, UniProt C7T2J7)", "T1 construct": "by using the sebaceous gland at the back of a hamster; from tissue; host or cells: sebaceous gland at the back of a hamster", "T1 sequence (C7T2J7 1-255)": "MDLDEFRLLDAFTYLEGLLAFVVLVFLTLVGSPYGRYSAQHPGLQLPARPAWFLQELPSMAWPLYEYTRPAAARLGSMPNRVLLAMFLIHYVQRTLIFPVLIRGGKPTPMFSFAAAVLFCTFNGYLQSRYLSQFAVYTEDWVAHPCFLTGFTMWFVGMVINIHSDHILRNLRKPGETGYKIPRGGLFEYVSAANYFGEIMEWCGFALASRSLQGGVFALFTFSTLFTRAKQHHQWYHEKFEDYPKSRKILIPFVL", "assay": "Inhibitory effect on the reductase activity (testosterone reduced to 5α-DHT, hamster sebaceous gland)", "assay_type": "biochemical", "conditions": "for inhibition at 100 µM: 10^-4 molar concentration; for inhibition at 100 µM / inhibition at 10 µM: read-out: Rate of inhibition (reductase activity); for inhibition at 10 µM: 10^-5 molar concentration", "protocol": "Based on the method of Takayasu et al. (The Nishinihon Journal of Dermatology, 43, 1215-1217, 1981), the amount of testosterone reduced to 5α-DHT was measured by using the sebaceous gland at the back of a hamster. The concentrations of the samples used in the experiment were 10^-4 and 10^-5 molar concentrations, respectively. The rate of inhibition was calculated from the following equation using the resulting data.\nRate of inhibition (%)=(C-t/C) ×100\nC: the amount of 5α-DHT formed in a control\nt: the amount of 5α-DHT formed when the sample was added"}, "5α-DHT receptor protein": {"test_system": "5α-DHT receptor protein", "assay": "Inhibitory effect on binding of 5α-DHT with the receptor protein", "conditions": "for Rate of inhibition (binding of 5α-DHT with the receptor protein): 10^-6 molar concentration", "protocol": "Based on the method of Takayasu et al. (Arch. Dermatol. Res., 264, 50-51, 1979), the amount of 5α-DHT bound with the receptor protein was measured. The concentration of the sample used in the experiment was 10^-6 molar concentration. The rate of inhibition was calculated from the following equation using the resulting data.\nRate of inhibition (%)=(C-t/C)×100\nC: the amount of 5α-DHT bound with the receptor protein in a control\nt: the amount of 5α-DHT bound with the receptor protein when the sample was added"}, "[2]": {"test_system": "MPB (male pattern baldness)", "assay": "Clinical cases, male pattern baldness (MPB), topical application", "assay_type": "in vivo, human", "conditions": "The patient; Resorcinol and other lotions for application", "description": "The following preparations were used in the tests (1)-(22). MPB represents male pattern baldness."}, "[3]": {"assay": "Acute toxicity (LD50) of oxendolone, mouse", "conditions": "in vivo", "description": "(§1) The systemic acute toxicity of oxendolone is as follows:\n(§2) Acute Toxicity (LD50 : mg/kg)"}, "[4]": {"assay": "Acute toxicity (LD50) of oxendolone, rat", "conditions": "in vivo", "description": "as §1, §2"}, "hair and scalp": {"test_system": "hair and scalp", "assay": "Toxicity test of the present hair grower (local application)", "assay_type": "in vivo, human", "conditions": "0.2% ethanol solution"}, "[5]": {"test_system": "uptake of testosterone into the cells", "assay": "Inhibition of uptake of testosterone into the cells", "assay_type": "cell-based"}, "[6]": {"test_system": "head sebum / basal cells of hair", "assay": "Decrease of head sebum and mitosis of basal cells of hair", "conditions": "coupled with the defatting actions of ethanol"}},
  "data": [
    {"smiles": "C[C@]12CC[C@H]3[C@@H](CCC4=CC(=O)CC[C@@]43C)[C@@H]1CC[C@@H]2C(=O)O", "note": "[4-androsten-3-one-17β-carboxylic acid]", "values": [
      {"measurement": "inhibition at 100 µM", "setting": "[1]", "result": "54 ± 32", "unit": "%"},
      {"measurement": "inhibition at 10 µM", "setting": "[1]", "result": "31 ± 19", "unit": "%"},
      {"measurement": "Rate of inhibition (binding of 5α-DHT with the receptor protein)", "setting": "5α-DHT receptor protein", "result": 0, "unit": "%"}
    ]},
    {"smiles": "Oc1cccc(O)c1", "note": "[Resorcinol]", "values": [
      {"measurement": "effect of previous treatment, case (9)", "setting": "[2]", "result": "no appreciable change"}
    ]},
    {"smiles": "CC[C@H]1C[C@H]2[C@@H]3CCC4=CC(=O)CC[C@@H]4[C@H]3CC[C@]2(C)[C@H]1O", "note": "[Oxendolone, 16β-ethyl-17β-hydroxy-4-estren-3-one]", "values": [
      {"measurement": "LD50", "setting": "[3]; im, female, intramuscular", "result": "> 10000", "unit": "mg/kg"},
      {"measurement": "LD50", "setting": "[3]; im, male, intramuscular", "result": "> 10000", "unit": "mg/kg"},
      {"measurement": "LD50", "setting": "[3]; ip, female, intraperitoneal", "result": 2980, "unit": "mg/kg"},
      {"measurement": "LD50", "setting": "[3]; ip, male, intraperitoneal", "result": 2930, "unit": "mg/kg"},
      {"measurement": "LD50", "setting": "[4]; im, female, intramuscular", "result": "> 10000", "unit": "mg/kg"},
      {"measurement": "LD50", "setting": "[4]; im, male, intramuscular", "result": "> 10000", "unit": "mg/kg"},
      {"measurement": "LD50", "setting": "[4]; ip, female, intraperitoneal", "result": 5880, "unit": "mg/kg"},
      {"measurement": "LD50", "setting": "[4]; ip, male, intraperitoneal", "result": 6530, "unit": "mg/kg"},
      {"measurement": "inhibition at 100 µM", "setting": "[1]", "result": "43 ± 18", "unit": "%"},
      {"measurement": "inhibition at 10 µM", "setting": "[1]", "result": "28 ± 28", "unit": "%"},
      {"measurement": "inhibitory effect on the reductase activity compared with 4-androsten-3-one-17β-carboxylic acid", "setting": "[1]; comparison, Table 1", "result": "equivalent inhibitory effect on the reductase activity"},
      {"measurement": "Rate of inhibition (binding of 5α-DHT with the receptor protein)", "setting": "5α-DHT receptor protein", "result": 53, "unit": "%"},
      {"measurement": "inhibitory effect on the binding of 5α-DHT with the receptor protein compared with 4-androsten-3-one-17β-carboxylic acid", "setting": "5α-DHT receptor protein; comparison, Table 2", "result": "greater"},
      {"measurement": "local acute toxicity", "setting": "hair and scalp; 0.05 ml/cm^2, several times a day", "result": "No local acute toxicity was observed"},
      {"measurement": "other systemic or local side effect", "setting": "hair and scalp; in the application schedule", "result": "No other systemic or local side effect was observed"},
      {"measurement": "inhibition of uptake of testosterone into the cells", "setting": "[5]", "result": "inhibit uptake of testosterone into the cells"},
      {"measurement": "decrease of head sebum and mitosis of basal cells of hair", "setting": "[6]", "result": "synergistically produce a decrease of head sebum and promote the mitosis of basal cells of hair"},
      {"measurement": "solubility in ethanol", "setting": "Solubility of oxendolone; ethanol", "result": "soluble"},
      {"measurement": "solubility in vegetable oils, squalane, alcohols, fatty acids, silicone oils, etc.", "setting": "Solubility of oxendolone; vegetable oils etc.", "result": "dissolved totally or partially"},
      {"measurement": "solubility in water", "setting": "Solubility of oxendolone; water", "result": "practically insoluble"}
    ]}
  ]
}
